Where two headings read alike, the source gives them in different places.
Legend:
Type in all cases: cell-based
Staphylococcus aureus = assay: Agar diffusion test, inhibition zone; conditions: no Decylthiouroniumbromid im Agar, 24 h
Procedure: Methodik: Decylthiouroniumbromid wurde in abgestuften Konzentrationen im Agar inkorporiert. In Stanzlöcher wurde eine Natriumperboratlösung ohne und mit Aktivierung pipettiert. Die Platten wurden mit Staphylococcus aureus beimpft und 24 h bebrütet. Der entstehende Hemmhof wurde gemessen.

[1] = system: Candida albicans ATCC 10231; assay: Quantitative suspension test, fungicidal activity (DGHM guideline)
Description: Methodik: Untersucht wurde ein Gemisch G 1 von 99,4 % MMPP und 0,6 % Decylthiouroniumbromid und ein Gemisch G 2 von 99,7 % MMPP und 0,3 % Decylthiouroniumbromid im Vergleich zu MMPP als Monowirkstoff entsprechend der Richtlinie für die Prüfung und Bewertung chemischer Desinfektionsverfahren der Deutschen Gesellschaft für Hygiene und Mikrobiologie. Testkeim: Candida albicans ATCC 10231 Enthemmer: Tween, Lecithin, Cystein (TLC)

[2] = system: Pseudomonas aeruginosa ATCC 15442; assay: Röhrchenverdünnungstest, bacteriostatic activity; parameters: key: +: Wachstum; -: kein Wachstum; conditions: 72 h bei 37 °C
Procedure: (§1) Methodik der Prüfung auf bakteriostatische und fungistatische Wirksamkeit im Röhrchenverdünnungtest: In sterile Reagenzröhrchen werden je 5 ml der Verdünnungen der Prüfsubstanzen in Wasser standardisierter Härte mit 5 ml doppelt konzentrierter Caseinpepton-Sojamehl-Pepton-Lösung (CSL) vermischt. Zur Bestimmung der bakteriostatischen Wirkung werden die Röhrchen durch Zugabe von 0,1 ml einer 1 : 10 mit CSL verdünnten, 24 h bei 37 °C bebrüteten CSL-Kultur beimpft. Zur Prüfung der fungistatischen Wirkung werden je 0,1 ml einer unverdünnten, 72 h bei 37 °C bebrüteten CSL-Kultur von Candida albicans verwendet. Die Auswertung erfolgt nach einer Bebrütung von 72 h bei 37 °C. Es erfolgte außerdem eine Nachbeimpfung von CSA-Platten durch Ausstreichen der ? 72 h-Testlösungen", um das Wachstum der Testkeime zu beurteilen. Folgende Testkeime wurden eingesetzt: Sa: Staphylococcus aureus ATCC 6538 Ef: Enterococcus faecium ATCC 6057 Ec: Escherichia coli ATCC 11229 Pm: Proteus mirabilis ATCC 14153 Pa: Pseudomonas aeruginosa ATCC 15442 Ca: Candida albicans ATCC 10231

[3] = system: Proteus mirabilis ATCC 14153; assay: Röhrchenverdünnungstest, bacteriostatic activity; parameters: key: +: Wachstum; -: kein Wachstum; conditions: 72 h bei 37 °C
Procedure: as §1

[4] = system: Staphylococcus aureus ATCC 6538; assay: Röhrchenverdünnungstest, bacteriostatic activity; parameters: key: +: Wachstum; -: kein Wachstum; conditions: 72 h bei 37 °C
Procedure: as §1

[5] = system: Escherichia coli ATCC 11229; assay: Röhrchenverdünnungstest, bacteriostatic activity; parameters: key: +: Wachstum; -: kein Wachstum; conditions: 72 h bei 37 °C
Procedure: as §1

[6] = system: Enterococcus faecium ATCC 6057; assay: Röhrchenverdünnungstest, bacteriostatic activity; parameters: key: +: Wachstum; -: kein Wachstum; conditions: 72 h bei 37 °C
Procedure: as §1

[7] = system: Candida albicans ATCC 10231; assay: Röhrchenverdünnungstest, fungistatic activity; parameters: key: +: Wachstum; -: kein Wachstum; conditions: 72 h bei 37 °C
Procedure: as §1

With `O=BO[O-].[Na+]` [Perborat, Natriumperborat] the Hemmhofgröße (Staphylococcus aureus; Perboratkonzentration im Stanzloch 0,5%, Aktivator ja) was 13 mm, the Hemmhofgröße (Staphylococcus aureus; Perboratkonzentration im Stanzloch 0,5%, Aktivator nein) was 0 mm and the Hemmhofgröße (Staphylococcus aureus; Perboratkonzentration im Stanzloch 0,25%, Aktivator ja) was 0 mm. The Hemmhofgröße (Staphylococcus aureus; Perboratkonzentration im Stanzloch 0,25%, Aktivator nein) was 0 mm, the Hemmhofgröße (Staphylococcus aureus; Perboratkonzentration im Stanzloch 1%, Aktivator ja) was 15 mm and the Hemmhofgröße (Staphylococcus aureus; Perboratkonzentration im Stanzloch 1%, Aktivator nein) was 11 mm. For the same compound, the Hemmhofgröße (Staphylococcus aureus; Perboratkonzentration im Stanzloch 2%, Aktivator ja) was 19 mm and the Hemmhofgröße (Staphylococcus aureus; Perboratkonzentration im Stanzloch 2%, Aktivator nein) was 13 mm.
`O=C(O)c1ccccc1C(=O)OO` [MMPP, Magnesiummonoperphthalat] was tested, and the log reduction at 0.5 % ([1]; ATCC10231, 5 min, 0,5 %, x = 5, read-out: log. Reduktionsfaktoren bei einer Einwirkungszeit von x min) was 0.55, the log reduction at 0.6 % ([1]; ATCC10231, 5 min, 0,6 %, x = 5, read-out: log. Reduktionsfaktoren bei einer Einwirkungszeit von x min) was 0.83 and the log reduction at 0.425 % ([1]; ATCC10231, 5 min, 0,425 %, x = 5, read-out: log. Reduktionsfaktoren bei einer Einwirkungszeit von x min) was 1. The log reduction at 0.5 % ([1]; ATCC10231, 0.25 h, 0,5 %, x = 15, read-out: log. Reduktionsfaktoren bei einer Einwirkungszeit von x min) was 0.88, the log reduction at 0.6 % ([1]; ATCC10231, 0.25 h, 0,6 %, x = 15, read-out: log. Reduktionsfaktoren bei einer Einwirkungszeit von x min) was 0.91 and the log reduction at 0.425 % ([1]; ATCC10231, 0.25 h, 0,425 %, x = 15, read-out: log. Reduktionsfaktoren bei einer Einwirkungszeit von x min) was 1.5. For the same compound, the log reduction at 0.5 % ([1]; ATCC10231, 0.5 h, 0,5 %, x = 30, read-out: log. Reduktionsfaktoren bei einer Einwirkungszeit von x min) was 1.28, the log reduction at 0.6 % ([1]; ATCC10231, 0.5 h, 0,6 %, x = 30, read-out: log. Reduktionsfaktoren bei einer Einwirkungszeit von x min) was 1.7 and the log reduction at 0.425 % ([1]; ATCC10231, 0.5 h, 0,425 %, x = 30, read-out: log. Reduktionsfaktoren bei einer Einwirkungszeit von x min) was 3.6. For the same compound, the “Wachstum des Testkeims (Minimale Hemmkonzentrationen)” value (from here on “Wachstum des Testkeims”) ([2]; geprüfte Konzentration 0,85%) was “-”, the “Wachstum des Testkeims” value ([2]; geprüfte Konzentration 0,425%) was “-” and the “Wachstum des Testkeims” value ([3]; geprüfte Konzentration 0,85%) was “-”. For the same compound, the “Wachstum des Testkeims” value ([3]; geprüfte Konzentration 0,425%) was “+”, the “Wachstum des Testkeims” value ([4]; geprüfte Konzentration 0,5%) was “+” and the “Wachstum des Testkeims” value ([4]; geprüfte Konzentration 0,6%) was “-”. The “Wachstum des Testkeims” value ([4]; geprüfte Konzentration 0,85%) was “-”, the “Wachstum des Testkeims” value ([4]; geprüfte Konzentration 0,425%) was “+” and the “Wachstum des Testkeims” value ([5]; geprüfte Konzentration 0,85%) was “-”. The “Wachstum des Testkeims” value ([5]; geprüfte Konzentration 0,425%) was “-”, the “Wachstum des Testkeims” value ([6]; geprüfte Konzentration 0,85%) was “-” and the “Wachstum des Testkeims” value ([6]; geprüfte Konzentration 0,425%) was “+”. The “Wachstum des Testkeims” value ([7]; geprüfte Konzentration 0,85%) was “-” and the “Wachstum des Testkeims” value ([7]; geprüfte Konzentration 0,425%) was “+”.

— patent EP0940081A1, “Combinations of active agents and disinfectants, preservatives and antiseptics containing same” (Bode Chemie GmbH & Co., priority 1998, dated 1999)
